ChEMBL document CHEMBL4834434, “Discovery of Novel and Potent N-Methyl-d-aspartate Receptor Positive Allosteric Modulators with Antidepressant-like Activity in Rodent Models” (J Med Chem, 2021)
Calls of active or inactive are those of the source. No cut-off for these calls is given here.

Legend:
Mus musculus [1] = assay: Antidepressant activity in ICR mouse aassessed as inhibition of apomorphine-induced climbing behaviour at 10 mg/kg, ip administered prior to APO challenge and measured after 30 mins; assay type: functional, organism-based
[2] = target: 5-hydroxytryptamine receptor 2C (Rattus norvegicus) (UniProt P08909); assay: Displacement of [3H]-mesulergine from rat cerebral cortex 5HT2CR incubated for 15 mins by liquid scintillation counting analysis; assay type: tissue-based
[3] = Drug concentration in ICR mouse brain at 3 mg/kg, iv measured at 0.5 hrs by LC-MS/MS analysis; assay type: ADME, organism-based; settings: read-out: Ct
[4] = Drug concentration in ICR mouse plasma at 3 mg/kg, iv measured at 0.5 hrs by LC-MS/MS analysis; assay type: ADME, organism-based
[5] = Ratio of drug concentration in brain to plasma in ICR mouse at 10 mg/kg, po measured at 0.5 hrs by LC-MS/MS analysis; assay type: ADME, organism-based; settings: read-out: BPR
[6] = Drug concentration in Sprague-Dawley rat plasma at 3 mg/kg, iv measured at 80 mins by LC-MS/MS analysis; assay type: ADME, organism-based
[7] = Tmax in Sprague-Dawley rat at 10 mg/kg, po measured up to 1280 mins by HPLC-MS/MS analysis; assay type: ADME, organism-based; settings: in vivo
[8] = Acute toxicity in ip dosed ICR mouse assessed as lethal dose measured after 24 hrs; assay type: organism-based; settings: in vivo
[9] = target: D(3) dopamine receptor (Homo sapiens) (UniProt P35462); assay: Displacement of [3H]-methylspiperone from human dopamine D3 receptor expressed in CHO cells incubated for 60 mins by liquid scintillation counting analysis; assay type: cell-based
[10] = Drug concentration in ICR mouse brain at 10 mg/kg, po measured at 0.5 hrs by LC-MS/MS analysis; assay type: ADME, organism-based; settings: read-out: Ct
[11] = […] in ICR mouse assessed as body weight gain at 30 mg/kg, po administered for 28 days; assay type: organism-based; settings: in vivo, 672 h, time 28 day
[12] = target: 5-hydroxytryptamine receptor 1B (Homo sapiens) (UniProt P28222); assay: Displacement of [3H]-GR125743 from 5HT1BR (unknown origin) expressed in CHO cells; assay type: cell-based
[13] = Clearance in Sprague-Dawley rat at 3 mg/kg, iv measured up to 1280 mins by HPLC-MS/MS analysis; assay type: ADME, organism-based; settings: in vivo
[14] = […] in ICR mouse assessed as decrease in body weight at 30 mg/kg, po administered for 28 days; assay type: organism-based; settings: in vivo, 672 h, time 28 day
Glutamate NMDA receptor = assay: Positive allosteric modulation of C57BL/6 mouse NMDA receptor assessed as potentiation of NMDA-induced current in presence of saturating glutamate by patch-clamp method; assay type: tissue-based, Brain
[15] = Drug concentration in Sprague-Dawley rat plasma at 3 mg/kg, iv measured at 20 mins by LC-MS/MS analysis; assay type: ADME, organism-based
[16] = Cytotoxicity against mouse L929 cells assessed as cell growth inhibition at 60 uM measured after 48 hrs by CCK8 assay relative to control; assay type: cell-based
[17] = MRT in ICR mouse at 3 mg/kg, iv measured up to 24 hrs by HPLC-MS/MS analysis; assay type: ADME, organism-based; settings: in vivo
[18] = Drug concentration in Sprague-Dawley rat brain at 3 mg/kg, iv measured at 80 mins by LC-MS/MS analysis; assay type: ADME, organism-based; settings: read-out: Ct
[19] = Half life in Sprague-Dawley rat at 10 mg/kg, po measured up to 1280 mins by HPLC-MS/MS analysis; assay type: ADME, organism-based; settings: in vivo
[20] = Volume of distribution at steady state in ICR mouse at 3 mg/kg, iv measured up to 24 hrs by HPLC-MS/MS analysis; assay type: ADME, organism-based; settings: in vivo, read-out: Vdss
[21] = Effect on locomotor activity in ICR mouse assessed as hyperlocomotion at 10 mg/kg, ip measured after 90 mins; assay type: ADME, organism-based; settings: in vivo, 1.5 h
[22] = target: T1, Glutamate NMDA receptor (Mus musculus) (UniProt P35436+Q91ZU9+Q03391+P35438+Q01097+Q01098+A2AIR5); assay: Positive allosteric modulation of C57BL/6 mouse NMDA receptor assessed as fold change in compound potentiated NMDA-induced current relative to NMDA current alone at 30 uM measured after 15 to 30 mins by patch-clamp method; assay type: tissue-based; settings: Brain, filed as positive allosteric modulator, time 15-30 min
[23] = Brain to blood partition coefficient of the compound; assay type: physicochemical, tissue-based; settings: read-out: logBB (converted)
[24] = Clearance in ICR mouse at 3 mg/kg, iv measured up to 24 hrs by HPLC-MS/MS analysis; assay type: ADME, organism-based; settings: in vivo
[25] = Volume of distribution at steady state in Sprague-Dawley rat at 3 mg/kg, iv measured up to 1280 mins by HPLC-MS/MS analysis; assay type: ADME, organism-based; settings: in vivo
Mus musculus [26] = assay: Antidepressant activity in ICR mouse assessed as decrease in immobility time at 30 mg/kg, ip measured after 26 mins by forced swim test; assay type: functional, organism-based
Mus musculus [27] = assay: Antidepressant activity in ICR mouse assessed as decrease in immobility time at 3 to 10 mg/kg, ip measured after 26 mins by forced swim test; assay type: functional, organism-based; settings: dose 3-10 mg/kg
[28] = Drug concentration in Sprague-Dawley rat brain at 3 mg/kg, iv measured at 20 mins by LC-MS/MS analysis; assay type: ADME, organism-based; settings: read-out: Ct
[29] = target: T1, Glutamate NMDA receptor (Mus musculus); assay: Positive allosteric modulation of C57BL/6 mouse NMDA receptor assessed as fold change in compound potentiated NMDA-induced current relative to NMDA current alone in presence of saturating glutamate by patch-clamp method; assay type: tissue-based; settings: Brain, filed as positive allosteric modulator
[30] = AUC (0 to t) in ICR mouse at 10 mg/kg, po measured up to 24 hrs by HPLC-MS/MS analysis; assay type: ADME, organism-based; design: route oral, dose 10 mg/kg, time <=24; settings: in vivo
[31] = target: Adrenergic receptor alpha-1 (Rattus norvegicus) (UniProt P15823+P23944+P43140); assay: Displacement of [3H]-prazosin from rat adrenergic alpha 1 receptor incubated for 60 mins by liquid scintillation counting analysis; assay type: protein assay
[32] = […] in ICR mouse assessed as change in behaviour at 30 mg/kg, po administered for 28 days; assay type: organism-based; settings: in vivo, 672 h, time 28 day
[33] = Half life in Sprague-Dawley rat at 3 mg/kg, iv measured up to 1280 mins by HPLC-MS/MS analysis; assay type: ADME, organism-based; settings: in vivo
[34] = AUC (0 to t) in Sprague-Dawley rat at 10 mg/kg, po measured up to 1280 mins by HPLC-MS/MS analysis; assay type: ADME, organism-based; design: route oral, dose 10 mg/kg, time <=1280; settings: in vivo
[35] = Cytotoxicity against mouse L929 cells assessed as cell growth inhibition at 120 uM measured after 48 hrs by CCK8 assay relative to control; assay type: cell-based
[36] = Ratio of drug concentration in brain to plasma in ICR mouse at 3 mg/kg, iv measured at 2 hrs by LC-MS/MS analysis; assay type: ADME, organism-based; settings: read-out: BPR
[37] = Cytotoxicity against African green monkey Vero cells assessed as cell growth inhibition at 120 uM measured after 48 hrs by CCK8 assay relative to control; assay type: cell-based; settings: chlorocebus sabaeus
[38] = target: Sodium-dependent serotonin transporter (Homo sapiens) (UniProt P31645); assay: Displacement of [3H]-paroxetine from SERT (unknown origin); design: dose or concentration left out as unconfirmed
[39] = AUC (0 to t) in Sprague-Dawley rat at 3 mg/kg, iv measured up to 1280 mins by HPLC-MS/MS analysis; assay type: ADME, organism-based; design: route intravenous, dose 3 mg/kg, time <=1280; settings: in vivo

Chain of 5-hydroxytryptamine receptor 2C (Rattus norvegicus) (P08909 whole entry): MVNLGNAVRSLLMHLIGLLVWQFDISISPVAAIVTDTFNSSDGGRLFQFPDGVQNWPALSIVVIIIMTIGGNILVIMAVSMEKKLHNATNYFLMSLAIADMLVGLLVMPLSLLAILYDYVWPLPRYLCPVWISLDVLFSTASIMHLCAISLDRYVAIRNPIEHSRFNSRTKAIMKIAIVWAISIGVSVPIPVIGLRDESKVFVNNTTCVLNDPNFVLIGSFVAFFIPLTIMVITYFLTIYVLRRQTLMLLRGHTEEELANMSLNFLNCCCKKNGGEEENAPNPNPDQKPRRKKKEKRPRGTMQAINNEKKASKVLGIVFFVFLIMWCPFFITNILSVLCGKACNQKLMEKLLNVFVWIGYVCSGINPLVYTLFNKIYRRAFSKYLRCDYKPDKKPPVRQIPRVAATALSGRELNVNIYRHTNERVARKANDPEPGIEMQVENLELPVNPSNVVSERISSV
Chain of 5-hydroxytryptamine receptor 1B (Homo sapiens) (P28222 whole entry): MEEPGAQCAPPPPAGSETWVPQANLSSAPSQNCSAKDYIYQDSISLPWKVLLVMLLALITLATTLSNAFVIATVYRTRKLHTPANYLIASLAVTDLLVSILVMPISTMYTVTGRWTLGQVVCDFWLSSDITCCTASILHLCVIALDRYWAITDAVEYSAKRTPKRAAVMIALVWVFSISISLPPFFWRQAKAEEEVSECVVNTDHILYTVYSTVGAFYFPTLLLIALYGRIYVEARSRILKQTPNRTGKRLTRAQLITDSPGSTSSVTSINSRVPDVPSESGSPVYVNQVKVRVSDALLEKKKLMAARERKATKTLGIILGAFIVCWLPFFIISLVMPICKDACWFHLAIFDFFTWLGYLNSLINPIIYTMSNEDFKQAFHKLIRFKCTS
Chain of D(3) dopamine receptor (Homo sapiens) (P35462 whole entry): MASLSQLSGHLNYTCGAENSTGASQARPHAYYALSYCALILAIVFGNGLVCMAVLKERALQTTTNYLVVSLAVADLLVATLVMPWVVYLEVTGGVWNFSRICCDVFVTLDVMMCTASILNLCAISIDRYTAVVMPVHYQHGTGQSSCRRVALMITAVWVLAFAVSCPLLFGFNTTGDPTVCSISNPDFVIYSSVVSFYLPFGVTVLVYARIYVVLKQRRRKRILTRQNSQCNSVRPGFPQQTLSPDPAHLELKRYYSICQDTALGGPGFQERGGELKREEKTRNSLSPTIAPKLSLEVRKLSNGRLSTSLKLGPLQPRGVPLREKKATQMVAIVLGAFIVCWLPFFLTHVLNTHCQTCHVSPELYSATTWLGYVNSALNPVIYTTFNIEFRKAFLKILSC
Chain of Sodium-dependent serotonin transporter (Homo sapiens) (P31645 whole entry, looked up): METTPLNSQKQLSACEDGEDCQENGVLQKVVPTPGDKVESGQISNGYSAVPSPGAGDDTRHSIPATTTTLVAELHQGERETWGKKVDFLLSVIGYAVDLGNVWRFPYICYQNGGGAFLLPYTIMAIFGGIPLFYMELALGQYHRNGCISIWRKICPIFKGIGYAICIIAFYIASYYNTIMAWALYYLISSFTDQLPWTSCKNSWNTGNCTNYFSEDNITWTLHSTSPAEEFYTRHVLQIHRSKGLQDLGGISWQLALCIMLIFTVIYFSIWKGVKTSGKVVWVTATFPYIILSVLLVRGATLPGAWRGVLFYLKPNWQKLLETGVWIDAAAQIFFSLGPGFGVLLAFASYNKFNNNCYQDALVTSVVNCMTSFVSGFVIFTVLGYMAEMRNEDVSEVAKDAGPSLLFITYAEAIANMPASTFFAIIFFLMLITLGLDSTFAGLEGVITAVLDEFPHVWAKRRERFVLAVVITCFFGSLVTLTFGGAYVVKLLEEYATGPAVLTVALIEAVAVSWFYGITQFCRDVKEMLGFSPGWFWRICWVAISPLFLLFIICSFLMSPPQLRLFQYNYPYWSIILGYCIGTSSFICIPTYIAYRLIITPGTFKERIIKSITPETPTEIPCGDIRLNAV

Cc1cc(C)n(Cc2ccc(C(=O)Nc3ccc(Cl)c(Cl)c3)s2)n1
Activity (Mus musculus [1]): inactive | inhibition [2]: inactive | concentration at 0.5 h [3]: 160 ng/mL | concentration at 0.5 h [4]: 389 ng/mL | Kp at 0.5 h [5]: 0.37 | concentration at 1.333 h [6]: 239 ng/mL | Tmax [7]: 0.555 h | LD50 at 24 h [8]: 1500 mg/kg | inhibition [9]: inactive | concentration at 0.5 h [10]: 281 ng/mL | Activity [11]: Non-Toxic | inhibition [12]: inactive | CL [13]: 27.8 mL/min/kg | Activity [14]: Toxic | EC50 (Glutamate NMDA receptor): 2400 nM | concentration at 20 min [15]: 1490 ng/mL | inhibition at 48 h, 60 µM [16]: 0.5% | MRT [17]: 4 h | concentration at 1.333 h [18]: 354 ng/g | half-life [19]: 1.13 h | Vd [20]: 8.3 L/kg | Activity [21]: Non-Toxic | fold change (FC) [22]: 12.5 | Kp [23]: 1.26 | clearance [24]: 33.3 mL/min/kg | Vdss [25]: 1.27 L/kg | Activity (Mus musculus [26]): Active | Activity (Mus musculus [27]): Active | concentration at 20 min [28]: 2190 ng/g | fold change (FC) [29]: 14.3 | AUC(0-t) at 24 h [30]: 3050 ng·h/mL | inhibition [31]: inactive | Activity [32]: Non-Toxic | t1/2 [33]: 1.7 h | AUC(0-t) at 1280 min [34]: 503 ng·h/mL | inhibition at 48 h, 120 µM [35]: -4.6% | Kp at 2 h [36]: 0.34 | inhibition at 48 h, 120 µM [37]: 22.6% | inhibition [38]: inactive | AUC(0-t) at 1280 min [39]: 1820 ng·h/mL
